Measured values reported in ChEMBL document CHEMBL1909046, “DrugMatrix in vitro pharmacology data”.

Tests used:
[1] = molecular target: Beta-3 adrenergic receptor (Homo sapiens, UniProt P13945); assay: DRUGMATRIX: Adrenergic beta3 radioligand binding (ligand: [125I] Cyanopindolol); type: cell membranes, HEK293, Membrane; conditions: hek293; Not Active = under 50% inhibition at 10 µM
[2] = molecular target: T1, C-X-C chemokine receptor type 2 (Homo sapiens, UniProt P25025); type: cell membranes, Membrane; conditions: cho-k1; note: in other assays of this panel Not Active means under 50% inhibition at 10 µM
T1 sequence (P25025 whole entry): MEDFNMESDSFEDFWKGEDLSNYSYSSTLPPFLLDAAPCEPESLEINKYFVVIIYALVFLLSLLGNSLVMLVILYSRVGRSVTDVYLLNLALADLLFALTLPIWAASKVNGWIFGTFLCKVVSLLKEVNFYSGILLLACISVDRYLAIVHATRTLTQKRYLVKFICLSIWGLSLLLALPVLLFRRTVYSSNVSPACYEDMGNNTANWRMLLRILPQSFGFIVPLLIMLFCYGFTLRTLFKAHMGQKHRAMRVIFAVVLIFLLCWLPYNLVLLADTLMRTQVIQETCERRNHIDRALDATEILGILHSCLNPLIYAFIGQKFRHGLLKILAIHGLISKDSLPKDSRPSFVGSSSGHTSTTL

Cannabinoid receptor 1 = Cannabinoid receptor 1 (Homo sapiens, UniProt P21554); type: cell membranes, Chem-1, Membrane; conditions: chem-1; note: in other assays of this panel Not Active means under 50% inhibition at 10 µM
[3] = molecular target: 5-hydroxytryptamine receptor 6 (Homo sapiens, UniProt P50406); type: cell membranes, HeLa, Membrane; conditions: hela; note: in other assays of this panel Not Active means under 50% inhibition at 10 µM
[4] = DRUGMATRIX: GABAA, Chloride Channel, TBOB radioligand binding (ligand: [3H] TBOB); type: cell membranes, Rattus norvegicus, Wistar, Cerebral cortex, Membrane; conditions: Not Active = under 50% inhibition at 10 µM
Estrogen receptor = molecular target: T2, Estrogen receptor (Homo sapiens, UniProt P03372); conditions: sf9; note: in other assays of this panel Not Active means under 50% inhibition at 10 µM
T2 sequence (P03372 whole entry): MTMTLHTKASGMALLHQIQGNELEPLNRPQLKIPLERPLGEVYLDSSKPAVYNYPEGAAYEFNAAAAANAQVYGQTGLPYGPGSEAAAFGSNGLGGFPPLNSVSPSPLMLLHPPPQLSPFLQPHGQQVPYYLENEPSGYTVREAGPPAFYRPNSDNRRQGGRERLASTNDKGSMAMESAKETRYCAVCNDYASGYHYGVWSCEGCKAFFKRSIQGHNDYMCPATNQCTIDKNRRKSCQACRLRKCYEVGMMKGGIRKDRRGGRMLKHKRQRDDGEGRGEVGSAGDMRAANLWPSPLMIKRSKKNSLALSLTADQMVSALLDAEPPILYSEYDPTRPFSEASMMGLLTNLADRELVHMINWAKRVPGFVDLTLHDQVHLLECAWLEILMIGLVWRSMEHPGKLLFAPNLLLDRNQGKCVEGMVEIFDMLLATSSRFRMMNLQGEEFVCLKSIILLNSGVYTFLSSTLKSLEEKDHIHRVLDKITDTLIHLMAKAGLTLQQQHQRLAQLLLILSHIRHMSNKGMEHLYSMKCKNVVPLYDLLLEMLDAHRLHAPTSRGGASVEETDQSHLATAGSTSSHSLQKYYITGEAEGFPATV

Cytochrome P450 3A4 = Cytochrome P450 3A4 (Homo sapiens, UniProt P08684); conditions: bti-tn-5b1-4; note: in other assays of this panel Not Active means under 50% inhibition at 10 µM
[5] = DRUGMATRIX: Platelet-Derived Growth Factor (PDGF) radioligand binding (ligand: [125I] PDGF); type: cell-based; conditions: nih3t3; Not Active = under 50% inhibition at 10 µM

Chain of Beta-3 adrenergic receptor (P13945 whole entry): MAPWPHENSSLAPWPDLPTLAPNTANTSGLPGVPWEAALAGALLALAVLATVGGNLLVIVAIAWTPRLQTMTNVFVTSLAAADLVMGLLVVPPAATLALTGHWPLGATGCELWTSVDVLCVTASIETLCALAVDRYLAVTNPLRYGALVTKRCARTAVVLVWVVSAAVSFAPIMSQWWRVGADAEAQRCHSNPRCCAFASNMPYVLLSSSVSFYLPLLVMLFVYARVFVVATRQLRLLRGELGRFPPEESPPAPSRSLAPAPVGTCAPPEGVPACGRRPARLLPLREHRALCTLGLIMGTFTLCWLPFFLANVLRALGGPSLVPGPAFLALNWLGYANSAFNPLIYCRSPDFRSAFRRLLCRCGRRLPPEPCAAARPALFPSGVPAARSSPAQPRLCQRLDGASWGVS
Chain of 5-hydroxytryptamine receptor 6 (P50406 whole entry): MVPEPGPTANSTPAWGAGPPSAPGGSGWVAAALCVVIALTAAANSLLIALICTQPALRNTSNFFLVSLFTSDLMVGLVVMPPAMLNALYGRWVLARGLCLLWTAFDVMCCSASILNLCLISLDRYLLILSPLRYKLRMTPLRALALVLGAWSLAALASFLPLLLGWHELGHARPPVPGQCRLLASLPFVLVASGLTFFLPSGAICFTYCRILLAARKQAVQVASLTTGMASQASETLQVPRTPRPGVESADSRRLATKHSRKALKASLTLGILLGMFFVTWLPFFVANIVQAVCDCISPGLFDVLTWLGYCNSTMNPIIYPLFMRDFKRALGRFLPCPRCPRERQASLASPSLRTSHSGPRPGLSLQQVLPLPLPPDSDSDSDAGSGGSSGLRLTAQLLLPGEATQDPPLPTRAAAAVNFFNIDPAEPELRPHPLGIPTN
Chain of Cytochrome P450 3A4 (P08684 whole entry): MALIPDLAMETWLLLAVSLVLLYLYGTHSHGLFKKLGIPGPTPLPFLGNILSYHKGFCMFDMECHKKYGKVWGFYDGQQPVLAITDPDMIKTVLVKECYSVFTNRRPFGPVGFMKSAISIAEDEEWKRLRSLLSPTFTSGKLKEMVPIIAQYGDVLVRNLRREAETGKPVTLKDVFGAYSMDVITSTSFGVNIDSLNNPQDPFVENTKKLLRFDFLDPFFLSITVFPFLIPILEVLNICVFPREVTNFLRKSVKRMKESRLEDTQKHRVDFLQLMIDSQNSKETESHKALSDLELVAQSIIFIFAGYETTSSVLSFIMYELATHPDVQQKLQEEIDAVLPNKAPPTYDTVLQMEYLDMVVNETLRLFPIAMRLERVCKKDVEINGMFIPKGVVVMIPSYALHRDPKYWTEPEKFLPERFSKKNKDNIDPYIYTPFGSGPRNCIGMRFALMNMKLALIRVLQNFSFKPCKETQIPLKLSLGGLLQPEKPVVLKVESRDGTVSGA
Chain of Cannabinoid receptor 1 (P21554 whole entry): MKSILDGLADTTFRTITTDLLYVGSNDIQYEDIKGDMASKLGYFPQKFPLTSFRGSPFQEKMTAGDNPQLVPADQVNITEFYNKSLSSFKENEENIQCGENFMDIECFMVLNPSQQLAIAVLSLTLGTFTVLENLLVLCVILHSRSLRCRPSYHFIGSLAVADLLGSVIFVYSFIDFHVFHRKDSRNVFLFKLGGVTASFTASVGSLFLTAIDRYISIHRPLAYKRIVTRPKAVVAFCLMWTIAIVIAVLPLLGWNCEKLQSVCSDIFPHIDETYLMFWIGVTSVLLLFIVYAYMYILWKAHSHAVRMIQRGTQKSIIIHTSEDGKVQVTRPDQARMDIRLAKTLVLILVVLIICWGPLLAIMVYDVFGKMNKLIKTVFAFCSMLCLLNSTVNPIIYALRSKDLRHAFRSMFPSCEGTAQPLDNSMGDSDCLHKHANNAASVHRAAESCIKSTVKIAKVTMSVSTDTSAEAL

O=C(O)c1cccnc1Nc1cccc(C(F)(F)F)c1 [NIFLUMIC ACID]
Not Active: IC50 [1] | IC50 [2] | IC50 (Cannabinoid receptor 1) | IC50 [3] | IC50 [4] | Ki [4] | IC50 (Estrogen receptor) | IC50 (Cytochrome P450 3A4) | Ki (Cytochrome P450 3A4) | IC50 [5] | Ki [5]

C#CC1(O)CC[C@H]2[C@@H]3CCC4=CC(=O)CC[C@@H]4[C@H]3CC[C@@]21CC (some centres undefined) [NORGESTREL]
Not Active: IC50 [1] | IC50 [2] | IC50 (Cannabinoid receptor 1) | IC50 [3] | IC50 [4] | Ki [4] | IC50 (Estrogen receptor) | IC50 (Cytochrome P450 3A4) | Ki (Cytochrome P450 3A4) | IC50 [5] | Ki [5]

COC(=O)Nc1nc2ccc([S+]([O-])c3ccccc3)cc2[nH]1 (centres undefined) [OXFENDAZOLE]
Not Active: IC50 [1] | IC50 [2] | IC50 (Cannabinoid receptor 1) | IC50 [3] | IC50 [4] | Ki [4] | IC50 (Estrogen receptor) | IC50 (Cytochrome P450 3A4) | Ki (Cytochrome P450 3A4) | IC50 [5] | Ki [5]

CC(=O)O[C@H]1C(=O)[C@@]2(C)[C@H]([C@H](OC(=O)c3ccccc3)[C@]3(O)C[C@H](OC(=O)[C@H](O)[C@@H](NC(=O)c4ccccc4)c4ccccc4)C(C)=C1C3(C)C)[C@]1(OC(C)=O)CO[C@@H]1C[C@@H]2O [PACLITAXEL]
Not Active: IC50 [1] | IC50 [2] | IC50 (Cannabinoid receptor 1) | IC50 [3] | IC50 [4] | Ki [4] | IC50 (Estrogen receptor) | IC50 (Cytochrome P450 3A4) | Ki (Cytochrome P450 3A4) | IC50 [5] | Ki [5]

C[n+]1ccc(-c2cc[n+](C)cc2)cc1.[Cl-].[Cl-] [PARAQUAT DICHLORIDE]
Not Active: IC50 [1] | IC50 [2] | IC50 (Cannabinoid receptor 1) | IC50 [3] | IC50 [4] | Ki [4] | IC50 (Estrogen receptor) | IC50 (Cytochrome P450 3A4) | Ki (Cytochrome P450 3A4) | IC50 [5] | Ki [5]

C[n+]1ccccc1/C=N/O.[Cl-] [PRALIDOXIME CHLORIDE]
Not Active: IC50 [1] | IC50 [2] | IC50 (Cannabinoid receptor 1) | IC50 [3] | IC50 [4] | Ki [4] | IC50 (Estrogen receptor) | IC50 (Cytochrome P450 3A4) | Ki (Cytochrome P450 3A4) | IC50 [5] | Ki [5]

COc1cc2nc(N3CCN(C(=O)c4ccco4)CC3)nc(N)c2cc1OC [PRAZOSIN]
Not Active: IC50 [1] | IC50 [2] | IC50 (Cannabinoid receptor 1) | IC50 [3] | IC50 [4] | Ki [4] | IC50 (Estrogen receptor) | IC50 (Cytochrome P450 3A4) | Ki (Cytochrome P450 3A4) | IC50 [5] | Ki [5]

C[C@]12C=CC(=O)C=C1CC[C@@H]1[C@@H]2[C@@H](O)C[C@@]2(C)[C@H]1CC[C@]2(O)C(=O)CO [PREDNISOLONE]
Not Active: IC50 [1] | IC50 [2] | IC50 (Cannabinoid receptor 1) | IC50 [3] | IC50 [4] | Ki [4] | IC50 (Estrogen receptor) | IC50 (Cytochrome P450 3A4) | Ki (Cytochrome P450 3A4) | IC50 [5] | Ki [5]

CC(=O)[C@H]1[C@H](C#N)C[C@H]2[C@@H]3CC=C4C[C@@H](O)CC[C@]4(C)[C@H]3CC[C@@]21C [PREGNENOLONE CARBONITRILE]
Not Active: IC50 [1] | IC50 [2] | IC50 (Cannabinoid receptor 1) | IC50 [3] | IC50 [4] | Ki [4] | IC50 (Estrogen receptor) | IC50 (Cytochrome P450 3A4) | Ki (Cytochrome P450 3A4) | IC50 [5] | Ki [5]

Oc1cccc(O)c1O [PYROGALLOL]
Not Active: IC50 [1] | IC50 [2] | IC50 (Cannabinoid receptor 1) | IC50 [3] | IC50 [4] | Ki [4] | IC50 (Estrogen receptor) | IC50 (Cytochrome P450 3A4) | Ki (Cytochrome P450 3A4) | IC50 [5] | Ki [5]

AURANOFIN
Not Active: IC50 [1] | Ki [1] | IC50 [2] | Ki [2] | IC50 (Cannabinoid receptor 1) | Ki (Cannabinoid receptor 1) | IC50 [3] | Ki [3] | IC50 [4] | Ki [4] | IC50 (Estrogen receptor) | Ki (Estrogen receptor) | IC50 (Cytochrome P450 3A4) | Ki (Cytochrome P450 3A4) | IC50 [5] | Ki [5]

GADOPENTETATE DIMEGLUMINE
Not Active: IC50 [1] | Ki [1] | IC50 [2] | Ki [2] | IC50 (Cannabinoid receptor 1) | Ki (Cannabinoid receptor 1) | IC50 [3] | Ki [3] | IC50 [4] | Ki [4] | IC50 (Estrogen receptor) | Ki (Estrogen receptor) | IC50 (Cytochrome P450 3A4) | Ki (Cytochrome P450 3A4) | IC50 [5] | Ki [5]

GENTAMICIN
Not Active: IC50 [1] | Ki [1] | IC50 [2] | Ki [2] | IC50 (Cannabinoid receptor 1) | Ki (Cannabinoid receptor 1) | IC50 [3] | Ki [3] | IC50 [4] | Ki [4] | IC50 (Estrogen receptor) | Ki (Estrogen receptor) | IC50 (Cytochrome P450 3A4) | Ki (Cytochrome P450 3A4) | IC50 [5] | Ki [5]

GRAMICIDIN
Not Active: IC50 [1] | Ki [1] | IC50 [2] | Ki [2] | IC50 (Cannabinoid receptor 1) | Ki (Cannabinoid receptor 1) | IC50 [3] | Ki [3] | IC50 [4] | Ki [4] | IC50 (Estrogen receptor) | Ki (Estrogen receptor) | IC50 (Cytochrome P450 3A4) | Ki (Cytochrome P450 3A4) | IC50 [5] | Ki [5]
